From publication PMC8781390, “Inclusion Complexes of Rifampicin with Native and Derivatized Cyclodextrins: In Silico Modeling, Formulation, and Characterization” (Pharmaceuticals, 2021)
Converted amounts (≈) assume the structure as drawn. Where two headings read alike, the source gives them in different places.

Columns and labels:
[1] = system: Staphylococcus aureus (NCTC 10788); assay: MIC by broth microdilution; assay type: cell-based; details: Staphylococcus aureus NCTC 10788, 37 °C
Procedure: (§1) The minimum inhibitory concentration (MIC) of pure RIF and RIF-CD complexes was determined against both Staphylococcus aureus (NCTC® 10788) and methicillin-resistant Staphylococcus aureus (MRSA) (ATCC® 33593™) using the broth microdilution method. Briefly, inclusion complexes of RIF-CD were separately dissolved in sterile distilled water and diluted with Mueller–Hinton broth (MHB) to obtain a series of culture media containing different RIF concentrations ranging from 50 to 0.78 µg/mL. Solutions and suspensions of pure RIF were prepared by adding the pure RIF in methanol and in sterile distilled water, respectively, and then diluted with MHB to achieve the same concentration as for the RIF-CD inclusion complexes. Culture media in the microplates were inoculated with 100 µL of each bacterial suspension to achieve a final bacterial concentration of 2.0 × 10^5 CFU/mL. Pure MHB inoculated with the different bacterial strains was included as a positive control. The inoculated culture media were then incubated at 37 °C for 24 h. The MIC was determined as the lowest concentration of pure RIF and RIF-CD inclusion complexes where no visible bacterial growth was detected.

[2] = system: Methicillin-resistant Staphylococcus aureus (MRSA) (ATCC 33593); assay: MIC by broth microdilution; assay type: cell-based; details: MRSA ATCC 33593, 37 °C, 24 h
Procedure: as §1

[3] = Saturation solubility of RIF in buffered solutions; assay type: physicochemical; details: buffered solution
Procedure: Solubility studies were performed to assess RIF solubility in a range of buffers (pH 4.0, pH 7.0, and pH 9.0). For this purpose, an excess amount of RIF was added to 3 mL of adjusted buffered solutions in a glass vial. Suspensions were stirred at 100 rpm in a shaker incubator (Jeio Tech ISF-7100, Medline Scientific, Chalgrove Oxon, UK) at 37 °C for 24 h. Samples were then filtered using 0.2 μm syringe filters (Minisart®, Sartorius Stedim Biotech, Goeltingen, Germany). All samples were diluted appropriately and analyzed using the validated HPLC method described in Section 2.10.
(§2) The HPLC method for RIF quantification was adapted from our previous work. HPLC Agilent 1220 Series (Agilent Technologies, UK Ltd., Stockport, UK) was used to analyze all the samples. Isocratic separation was achieved using a Phenomenex® Luna C18 (ODS1) column (150 × 4.6 mm internal diameter, 5 µm packing) (Phenomenex, Cheshire, UK). The injection volume was 50 µL and the analysis was carried out at room temperature with a flow rate of 1 mL/min. The mobile phase was a mixture of 25 mM sodium dihydrogen phosphate buffer (with 1% triethylamine and adjusted using phosphoric acid at pH 6.8) and methanol (ratio 30:70 v/v). RIF was detected by a UV at 334 nm. All chromatograms were analyzed using the Agilent ChemStation® Software B.02.01.

[4] = In vitro release / dissolution study; assay type: physicochemical; details: all studied release media (pH 1.2, 6.8, 7.4), 37 °C
Procedure: In vitro release profiles for pure RIF and RIF-CD inclusion complexes were evaluated […]. Simulated gastric fluid (pH 1.2), simulated intestinal fluid (pH 6.8), and PBS (pH 7.4) were prepared as the release media in this study and used to mimic biological conditions in the human body. All samples were added into Eppendorf tubes containing 2 mL of the release media and were then placed in an incubator at 37 °C with shaking at 40 rpm. Sampling was carried out at 1, 2, 3, 4, 5, 6, 7, 8, and 24 h by taking 200 µL of each sample, transferring them to HPLC vials containing glass inserts, and replacing the sample with 200 µL of fresh release media. The samples were analyzed using a validated HPLC method.
as §2, with “The mobile phase was a mixture of 25 mM sodium dihydrogen phosphate buffer (with 1% triethylamine and adjusted using phosphoric acid at pH 6.8) and methanol (ratio 30:70 v/v).” left out

[5] = design: method as in earlier work; details: in humans; cited from earlier work
[6] = Phase solubility analysis of RIF with cyclodextrins (binding constant, complexation efficiency); assay type: physicochemical
Procedure: Phase solubility analysis was carried out similarly to the saturation solubility studies by using a range of concentrations of CDs in buffered solutions at different pH vales. […] Solubility of each drug was determined and plotted in a graph with the nominal concentration of cyclodextrin on the x-axis and the nominal concentration of RIF on the y-axis.
In order to determine the binding strength of CD and RIF, the binding constant (Ks) was calculated based on the phase diagram of solubility studies. […] (1) Ks=[RIF−CD]/[RIF]free·[CD]free CD+RIF↔KsCD−RIF where [RIF − CD], [RIF]free, and [CD]free are concentration of the RIF-CD complexes, free RIF, and free CD, respectively.
[RIF]free can be considered as RIF initial solubility (S0), therefore Equation (2) becomes:(2) Ks=[RIF−CD]/S0·[CD]free
The phase solubility diagram was constructed by plotting the RIF molar concentration on the y-axis and the CD molar concentration on the x-axis. […] (3) Ks=slope/S0·(1−slope)
The complexation efficiency (CE) was determined by using the slope of the phase solubility diagram according to Equation (4). (4) CE=[CD−RIF]/[CD]free=S0·Ks=slope/1−slope
Based on CE determination, the CD molar ratio was calculated using Equation (5). (5) Drug :CD molar ratio=1 : (CE+1)/CE

| Molecule | CE (complexation efficiency) ([6]; pH 4.0) | Ks (binding constant) ([6]; pH 4.0, RIF-CD 1:1 complex) | CE (complexation efficiency) ([6]; pH 7.0) | Ks (binding constant) ([6]; pH 7.0, RIF-CD 1:1 complex) | other results |
| --- | --- | --- | --- | --- | --- |
| CO[C@H]1/C=C/O[C@@]2(C)Oc3c(C)c(O)c4c(O)c(c(/C=N/N5CCN(C)CC5)c(O)c4c3C2=O)NC(=O)/C(C)=C\C=C\[C@H](C)[C@H](O)[C@@H](C)[C@@H](O)[C@@H](C)[C@H](OC(C)=O)[C@@H]1C [Pure RIF (suspension), Rifampicin] |  |  |  |  | MIC ([1]; 24 h, n = 3): 1.56 µg/mL (≈ 1.9 µM); MIC ([2]; n = 3): 1.56 µg/mL (≈ 1.9 µM) |
| CO[C@H]1/C=C/O[C@@]2(C)Oc3c(C)c(O)c4c(O)c(c(/C=N/N5CCN(C)CC5)c(O)c4c3C2=O)NC(=O)/C(C)=C\C=C\[C@H](C)[C@H](O)[C@@H](C)[C@@H](O)[C@@H](C)[C@H](OC(C)=O)[C@@H]1C [Pure RIF (solution), Rifampicin] |  |  |  |  | MIC ([1]; Staphylococcus aureus, NCTC10788, 24 h, n = 3, read-out: MIC): 0.78 µg/mL (≈ 0.948 µM); MIC ([2]; Staphylococcus aureus, n = 3, read-out: MIC): 0.78 µg/mL (≈ 0.948 µM) |
| CO[C@H]1/C=C/O[C@@]2(C)Oc3c(C)c(O)c4c(O)c(c(/C=N/N5CCN(C)CC5)c(O)c4c3C2=O)NC(=O)/C(C)=C\C=C\[C@H](C)[C@H](O)[C@@H](C)[C@@H](O)[C@@H](C)[C@H](OC(C)=O)[C@@H]1C [RIF, Rifampicin] |  |  |  |  | solubility at 24 h ([3]; aqueous buffer, thermodynamic from solid, buffer pH 7.0, 37 °C): 870 µg/mL (≈ 1060 µM); solubility at 24 h ([3]; buffer pH 4.0, 37 °C): 310 µg/mL (≈ 377 µM); solubility at 24 h ([3]; buffer pH 9.0, 37 °C): 1400 µg/mL (≈ 1700 µM); RIF released in 2 h [4]: less than 10%; oral bioavailability [5]: approximately 68% |
| hydroxypropyl-βCD [HP-βCD] | 0.20 | 541 M⁻¹ | 0.92 | 848 M⁻¹ | CE (complexation efficiency) ([6]; pH 9.0): 1.12; Ks (binding constant) ([6]; pH 9.0, RIF-CD 1:1 complex): 649 M⁻¹ |
| OC[C@H]1O[C@@H]2O[C@H]3[C@H](O)[C@@H](O)[C@@H](O[C@H]4[C@H](O)[C@@H](O)[C@@H](O[C@H]5[C@H](O)[C@@H](O)[C@@H](O[C@H]6[C@H](O)[C@@H](O)[C@@H](O[C@H]7[C@H](O)[C@@H](O)[C@@H](O[C@H]8[C@H](O)[C@@H](O)[C@@H](O[C@H]9[C@H](O)[C@@H](O)[C@@H](O[C@H]1[C@H](O)[C@H]2O)O[C@@H]9CO)O[C@@H]8CO)O[C@@H]7CO)O[C@@H]6CO)O[C@@H]5CO)O[C@@H]4CO)O[C@@H]3CO [γCD] | 0.80 |  | 1.22 | 1284 M⁻¹ |  |
| OC[C@H]1O[C@@H]2O[C@H]3[C@H](O)[C@@H](O)[C@@H](O[C@H]4[C@H](O)[C@@H](O)[C@@H](O[C@H]5[C@H](O)[C@@H](O)[C@@H](O[C@H]6[C@H](O)[C@@H](O)[C@@H](O[C@H]7[C@H](O)[C@@H](O)[C@@H](O[C@H]8[C@H](O)[C@@H](O)[C@@H](O[C@H]1[C@H](O)[C@H]2O)O[C@@H]8CO)O[C@@H]7CO)O[C@@H]6CO)O[C@@H]5CO)O[C@@H]4CO)O[C@@H]3CO [βCD] | 0.09 | 215 M⁻¹ | 0.29 | 250 M⁻¹ |  |
